Here are results for 2 compounds from US20200095241A1, “SUBSTITUTED 1,2,4-THIADIAZOLYLPYRROLONES AND 1,2,4-THIADIAZOLYLHYDANTOINS AND SALTS THEREOF AND USE THEREOF AS HERBICIDES” (Bayer CropScience Aktiengesellschaft, priority 2016, published 2020).

By inhibition is commonly meant the change of the read-out against control, counted positive when it falls.

Experiment [1] deals with Abutilon theophrasti. Briefly: Post-emergence herbicidal action. The experiment is classed as in vivo. The settings on record: Abutilon theophrasti, 504 h, about 3 weeks after treatment, read-out: Abutilon theophrasti, herbicidal activity rated visually. An outline of the steps: (§1)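 Greenhouse plants sprayed at one-leaf stage (2–3 weeks after sowing) with WP or EC formulations plus 0.5% additive at 600 l/ha water. Activity scored visually versus untreated controls about 3 weeks later (100% = dead, 0% = like control); rates 1280 or 320 g/ha.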

In experiment [2] the test system is Alopecurus myosuroides. The experiment is described as follows: Post-emergence herbicidal action. The experiment is classed as in vivo. The settings on record: 1280 g/ha, about 3 weeks after treatment. Put shortly: as §1
In experiment [3] the test system is Amaranthus retroflexus. Briefly: Post-emergence herbicidal action. The settings on record: about 3 weeks after treatment. In kind it is in vivo. An outline of the steps: as §1
Experiment [4] concerns Echinochloa crus-galli. The experiment is described as follows: Post-emergence herbicidal action. In kind it is in vivo. Particulars: 1280 g/ha, about 3 weeks after treatment. Put shortly: as §1
Experiment [5] deals with Hordeum murinum. Briefly: Post-emergence herbicidal action. The experiment is classed as in vivo. Particulars: 1280 g/ha, about 3 weeks after treatment. An outline of the steps:
as §1

Experiment [6] deals with Matricaria inodora. Briefly: Post-emergence herbicidal action. The experiment is classed as in vivo. Particulars: about 3 weeks after treatment. An outline of the steps:
as §1

Experiment [7] relates to Pharbitis purpurea. The experiment is described as follows: Post-emergence herbicidal action. The experiment is classed as in vivo. The settings on record: about 3 weeks after treatment. An outline of the steps:
as §1

Experiment [8] concerns Polygonum convolvulus. The experiment is described as follows: Post-emergence herbicidal action. In kind it is in vivo. Particulars: 1280 g/ha, about 3 weeks after treatment. Put shortly:
as §1

Experiment [9] deals with Setaria viridis. The experiment is described as follows: Post-emergence herbicidal action. The experiment is classed as in vivo. Particulars: Setaria viridis, 504 h, about 3 weeks after treatment, read-out: Setaria viridis, herbicidal activity rated visually. An outline of the steps: as §1
Experiment [10] relates to Stellaria media. The experiment is described as follows: Post-emergence herbicidal action. Particulars: Stellaria media, 504 h, about 3 weeks after treatment, read-out: Stellaria media, herbicidal activity rated visually. The experiment is classed as in vivo. Put shortly: as §1
For experiment [11], the system named is Veronica persica. Briefly: Post-emergence herbicidal action. In kind it is in vivo. Particulars: 1280 g/ha, about 3 weeks after treatment. An outline of the steps:
as §1

Experiment [12] concerns Viola tricolor. Briefly: Post-emergence herbicidal action. The experiment is classed as in vivo. Particulars: 504 h, about 3 weeks after treatment, read-out: Viola tricolor, herbicidal activity rated visually. An outline of the steps:
as §1

Experiment [13] deals with Alopecurus myosuroides. The experiment is described as follows: Pre-emergence herbicidal action. The experiment is classed as in vivo. The settings on record: after about 3 weeks. Put shortly: (§2)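 WP or EC formulations were sprayed onto the soil surface over sown seeds as aqueous suspension or emulsion with 0.5% additive at 600 l/ha water, at 1280 or 320 g/ha. Pots were kept in a greenhouse for about 3 weeks. Damage was then scored visually against untreated controls as % activity (100% = dead, 0% = like control).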

In experiment [14] the test system is Cyperus esculentus. The experiment is described as follows: Pre-emergence herbicidal action. In kind it is in vivo. The settings on record: 1280 g/ha, after about 3 weeks. An outline of the steps: as §2
In experiment [15] the test system is Echinochloa crus-galli. The experiment is described as follows: Pre-emergence herbicidal action. The experiment is classed as in vivo. Particulars: 1280 g/ha, after about 3 weeks. An outline of the steps: as §2
The subject of experiment [16] is Matricaria inodora. Briefly: Pre-emergence herbicidal action. The experiment is classed as in vivo. Particulars: Tripleurospermum inodorum, 504 h, after about 3 weeks, read-out: Matricaria inodora, herbicidal effect scored visually. Put shortly: as §2
For experiment [17], the system named is Polygonum convolvulus. Briefly: Pre-emergence herbicidal action. The experiment is classed as in vivo. The settings on record: after about 3 weeks. An outline of the steps:
as §2

Experiment [18] relates to Setaria viridis. The experiment is described as follows: Pre-emergence herbicidal action. In kind it is in vivo. The settings on record: Setaria viridis, 504 h, after about 3 weeks, read-out: Setaria viridis, herbicidal effect scored visually. An outline of the steps:
as §2

In experiment [19] the test system is Stellaria media. The experiment is described as follows: Pre-emergence herbicidal action. The experiment is classed as in vivo. Particulars: Stellaria media, 504 h, after about 3 weeks, read-out: Stellaria media, herbicidal effect scored visually. Put shortly: as §2
Experiment [20] has as its system Viola tricolor. Briefly: Pre-emergence herbicidal action. In kind it is in vivo. Particulars: Viola tricolor, 504 h, after about 3 weeks, read-out: Viola tricolor, herbicidal effect scored visually. An outline of the steps: as §2
Experiment [21] concerns the target T1, photosystem II (PS II) (Spinacia oleracea, UniProt P69560).
T1 construct: the chloroplasts were osmotically ruptured and the thylakoid membranes were then obtained by centrifugation; from tissue; host or cells: fresh spinach leaves; thylakoid membranes isolated from chloroplasts
Briefly: Measurement of the PS II activity in thylakoid membranes (DCPIP reduction). The experiment is classed as biochemical. The settings on record: 100 μM test compound, spinach thylakoid membranes, DCPIP 120 μM, 10 min at 22° C. with exposure to light; read-out: Effect (inhibition of PS II activity). An outline of the steps:
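Thylakoid membranes from spinach leaves in 50 mM phosphate buffer pH 6.8, 10 mM KCl; light-driven reduction of 120 μM DCPIP followed at 595 nm for 10 min at 22 °C. Compounds tested at 100 μM stock in DMSO (2.5% final DMSO), with activity binned by % inhibition classes.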

Experiment [22] deals with Hordeum murinum. Briefly: Pre-emergence herbicidal action. The experiment is classed as in vivo. The settings on record: 320 g/ha, after about 3 weeks. Put shortly:
as §2

Bounds are passed on as bounds.

For the compound `CC1=C(C)C(O)N(c2nc(C(C)C)ns2)C1=O` (stereo not drawn) [I.2-5, 3,4-Dimethyl-5-hydroxy-1-(3-(isopropyl)-1,2,4-thiadiazol-5-yl)-1,5-dihydro-2H-pyrrol-2-one], the pest or weed control at 1280 g/ha in [1] (1280 g/ha), in experiment [9] (1280 g/ha), in experiment [10] (1280 g/ha), in experiment [12] (1280 g/ha), in experiment [16] (1280 g/ha) and in experiment [18] (1280 g/ha) was 100% each time. The pest or weed control at 1280 g/ha in [19] (1280 g/ha) and in experiment [20] (1280 g/ha) was 100% in each case. Moreover, the “Alopecurus myosuroides, herbicidal activity rated visually” value in experiment [2] came out at 80%. For the same compound, the “Amaranthus retroflexus, herbicidal activity rated visually” value in experiment [3] (1280 g/ha) is listed as 100%. Besides, the “Echinochloa crus-galli, herbicidal activity rated visually” value in experiment [4] worked out at 90%. Also, the “Hordeum murinum, herbicidal activity rated visually” value in experiment [5] amounted to 100%. For the same compound, in [6] (1280 g/ha), the “Matricaria inodora, herbicidal activity rated visually” value was found to be 100%. In experiment [7] (1280 g/ha), the “Pharbitis purpurea, herbicidal activity rated visually” value came to 100%. The “Polygonum convolvulus, herbicidal activity rated visually” value in [8] is recorded as 80%. In addition, the “Veronica persica, herbicidal activity rated visually” value in [11] is on record as 90%. The “Alopecurus myosuroides, herbicidal effect scored visually” value in experiment [13] (1280 g/ha) is on record as 80%. For the same compound, the “Cyperus esculentus, herbicidal effect scored visually” value in [14] came out at 90%. Moreover, the “Echinochloa crus-galli, herbicidal effect scored visually” value in [15] turned out to be 80%. The “Polygonum convolvulus, herbicidal effect scored visually” value in experiment [17] (1280 g/ha) is on record as 100%. Also, the inhibition at 100 µM (stock) in experiment [21] is over 90%.

Consider `CC1=C(C)C(O)N(c2nc(C3CC3)ns2)C1=O` (stereo not drawn) [I.2-11, 3,4-Dimethyl-5-hydroxy-1-(3-cyclopropyl-1,2,4-thiadiazol-5-yl)-1,5-dihydro-2H-pyrrol-2-one], for which the pest or weed control at 320 g/ha in experiment [1] (320 g/ha), in experiment [9] (320 g/ha), in experiment [10] (320 g/ha), in experiment [12] (320 g/ha), in experiment [16] (320 g/ha) and in experiment [18] (320 g/ha) was 100% throughout. The pest or weed control at 320 g/ha in experiment [19] (320 g/ha) and in experiment [20] (320 g/ha) was 100% throughout. Besides, in experiment [3] (320 g/ha), the “Amaranthus retroflexus, herbicidal activity rated visually” value amounted to 100%. Moreover, the “Matricaria inodora, herbicidal activity rated visually” value in experiment [6] (320 g/ha) worked out at 100%. Further, the “Pharbitis purpurea, herbicidal activity rated visually” value in [7] (320 g/ha) amounted to 100%. Besides, the “Alopecurus myosuroides, herbicidal effect scored visually” value in [13] (320 g/ha) turned out to be 90%. Moreover, in experiment [22], the “Hordeum murinum, herbicidal effect scored visually” value is given as 100%. Besides, the “Polygonum convolvulus, herbicidal effect scored visually” value in experiment [17] (320 g/ha) was 100%. The inhibition at 100 µM (stock) in [21] is over 90%.
